{"source": "patent US20230241093A1", "about": "“TARGETING ADISPSIN FOR NONALCOHOLIC STEATOHEPATITIS (NASH)- INDUCED LIVER FIBROSIS” (The Trustees of Columbia University in the City of New York, priority 2020, published 2023)", "system": "hepatic stellate cells (HSC)", "assay": "Gene expression in hepatic stellate cells after treatment with recombinant C3a", "format": "cell-based", "settings": "recombinant C3a vs control (vehicle alone), FIG. 3B", "procedure": "FIG. 3. Adipsin/C3a effects on liver fibrosis. A. Complement C3 cleavage products as assessed by Western blot in conditioned medium from hepatocytes with or without Adipsin expression. B. Gene expression in hepatic stellate cells (HSC) after treatment with vehicle or recombinant C3a.\nThe effects of Adipsin/C3a on liver fibrosis was analyzed."}
{"substance": "recombinant C3a: recombinant complement C3 cleavage product C3a, used to treat hepatic stellate cells", "values": [{"measurement": "Acta2 gene expression in hepatic stellate cells", "result": "dose dependent increase"}, {"measurement": "Collal gene expression in hepatic stellate cells", "result": "dose dependent increase"}]}
